Assay results as given in patent US20120270844A1, “METHODS FOR TREATING ALZHEIMER'S DISEASE” (aFRAXis, Inc., priority 2009, published 2012).

How the values were obtained:
Assay type in all cases: biochemical
PAK3 = PAK3 (Homo sapiens, UniProt O75914); experiment: Z'Lyte fluorescence-based (FRET) PAK kinase assay, PAK3; settings: 100 μM ATP
Protocol: (§1) A fluorescence-based assay format is used to determine IC50 values of test compounds in vitro. Purified PAK kinase is incubated with ATP, and a test compound at various concentrations and a substrate peptide containing two fluorophores. In a second step, the reaction mix is incubated with a site-specific protease that cleaves non-phosphorylated bat not phosphorylated substrate peptide, disrupting the FRET signal generated by the two fluorophores in the cleaved peptide (Z′Lyte™ Kinase assay platform; Life Technologies).
(§2) Reagents: 50 mM HEPES, pH 7.5; 0.01% BRIJ-35; 10 nM MgCl1; 1 mM EGTA, 2 uM substrate peptide Ser/Thr20 (proprietary Life Technologies Sequence), PAK enzyme [2.42-30.8 ng for PAK1, 0.29-6 ng for PAK2, 1.5-20 ng for PAK3 and 0.1-0.86 ng for PAK4; actual enzyme amounts depend on lot activity of the enzyme preparation]
(§3) Test compounds are dissolved in DMSO at various concentrations; the final DMSO concentration in the assay reaction is 1%.
(§4) ATP concentration at Kin apparent is used in the assay [50 ┌M ATP for PAK1 assay, 75 ┌M ATP for PAK2 assay, 100 μM ATP for PAK3 assay, 5 μM ATP for PAK4 assay] in a total assay volume of 10 μl. Assay reactions are incubated at room temperature for 1 hr. Following the kinase reaction, 5 μl of 1:256 dilution of development solution A (Life Technologies) is added and the reaction mix is incubated for an additional 1 hr at room temperature.
(§5) Plates are analyzed in a standard fluorescence plate reader (Tecan or equivalent) using an excitation wavelength of 400 nn and emission wavelengths of 445 nm and 520 nm.
(§6) Inhibition of kinase reaction is determined by emission ratio=emission@445 nm/emission@520 nm
as §1, with “non-phosphorylated but” for “non-phosphorylated bat”, “peptide (Z'Lyte™” for “peptide (Z′Lyte™”, “assay platform” for “assay platform;”
as §2, with “mM MgCl2;” for “nM MgCl1;”
as §4, with “at Km” for “at Kin”, “[50 μMATP” for “[50 ┌M ATP”, “75 µM” for “75 ┌M”, “[…]” for “10 μl.”, “kinase reaction.” for “kinase reaction,”, “[…]” for “5 μl”
(§7) Plates are analyzed in a standard fluorescence plate reader (Teem or equivalent) using an excitation wavelength of 400 nm and emission wavelengths of 445 nm and 520 nm.

PAK2 = PAK2 (Homo sapiens, UniProt Q13177); experiment: Z'Lyte fluorescence-based (FRET) PAK kinase assay, PAK2
Protocol: as §1, §2, §3, §4, §5, §6
as §1, with “non-phosphorylated but” for “non-phosphorylated bat”, “peptide (Z'Lyte™” for “peptide (Z′Lyte™”, “assay platform” for “assay platform;”
as §2, with “mM MgCl2;” for “nM MgCl1;”
as §4, with “at Km” for “at Kin”, “[50 μMATP” for “[50 ┌M ATP”, “75 µM” for “75 ┌M”, “[…]” for “10 μl.”, “kinase reaction.” for “kinase reaction,”, “[…]” for “5 μl”
as §7

PAK1 = PAK1 (Homo sapiens, UniProt Q13153); experiment: Z'Lyte fluorescence-based (FRET) PAK kinase assay, PAK1; settings: 50 μM ATP
Protocol: as §1, §2, §3, §4, §5, §6
as §1, with “non-phosphorylated but” for “non-phosphorylated bat”, “peptide (Z'Lyte™” for “peptide (Z′Lyte™”, “assay platform” for “assay platform;”
as §2, with “mM MgCl2;” for “nM MgCl1;”
as §4, with “at Km” for “at Kin”, “[50 μMATP” for “[50 ┌M ATP”, “75 µM” for “75 ┌M”, “[…]” for “10 μl.”, “kinase reaction.” for “kinase reaction,”, “[…]” for “5 μl”
as §7

PAK4 = PAK4 (Homo sapiens, UniProt O96013); experiment: Z'Lyte fluorescence-based (FRET) PAK kinase assay, PAK4; settings: 5 μM ATP
Protocol: as §1, §2, §3, §4, §5, §6
as §1, with “non-phosphorylated but” for “non-phosphorylated bat”, “peptide (Z'Lyte™” for “peptide (Z′Lyte™”, “assay platform” for “assay platform;”
as §2, with “mM MgCl2;” for “nM MgCl1;”
as §4, with “at Km” for “at Kin”, “[50 μMATP” for “[50 ┌M ATP”, “75 µM” for “75 ┌M”, “[…]” for “10 μl.”, “kinase reaction.” for “kinase reaction,”, “[…]” for “5 μl”
as §7

[1] = Table 1 of Example 100, 75 μM ATP
[2] = Table 1 of Example 29 (own compound numbering)
[3] = Table 1 of Example 29 (own compound numbering), 75 µM ATP

PAK4, sequence (O96013 whole entry): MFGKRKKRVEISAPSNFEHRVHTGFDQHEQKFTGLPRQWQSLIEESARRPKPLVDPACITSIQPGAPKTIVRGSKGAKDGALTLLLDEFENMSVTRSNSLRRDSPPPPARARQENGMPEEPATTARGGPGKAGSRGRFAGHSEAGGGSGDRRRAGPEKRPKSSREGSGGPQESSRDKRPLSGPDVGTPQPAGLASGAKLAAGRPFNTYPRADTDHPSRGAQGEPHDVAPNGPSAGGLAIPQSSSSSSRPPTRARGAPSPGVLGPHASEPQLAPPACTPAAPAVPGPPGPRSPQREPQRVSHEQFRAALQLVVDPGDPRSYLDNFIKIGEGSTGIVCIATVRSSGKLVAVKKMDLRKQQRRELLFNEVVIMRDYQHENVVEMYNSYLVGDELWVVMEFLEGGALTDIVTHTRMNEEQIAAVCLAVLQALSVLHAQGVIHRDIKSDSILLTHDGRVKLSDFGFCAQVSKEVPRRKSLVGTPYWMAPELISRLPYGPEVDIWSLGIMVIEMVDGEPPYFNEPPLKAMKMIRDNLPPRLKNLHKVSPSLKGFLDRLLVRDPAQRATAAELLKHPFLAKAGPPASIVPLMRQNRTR
PAK3, sequence (O75914 whole entry): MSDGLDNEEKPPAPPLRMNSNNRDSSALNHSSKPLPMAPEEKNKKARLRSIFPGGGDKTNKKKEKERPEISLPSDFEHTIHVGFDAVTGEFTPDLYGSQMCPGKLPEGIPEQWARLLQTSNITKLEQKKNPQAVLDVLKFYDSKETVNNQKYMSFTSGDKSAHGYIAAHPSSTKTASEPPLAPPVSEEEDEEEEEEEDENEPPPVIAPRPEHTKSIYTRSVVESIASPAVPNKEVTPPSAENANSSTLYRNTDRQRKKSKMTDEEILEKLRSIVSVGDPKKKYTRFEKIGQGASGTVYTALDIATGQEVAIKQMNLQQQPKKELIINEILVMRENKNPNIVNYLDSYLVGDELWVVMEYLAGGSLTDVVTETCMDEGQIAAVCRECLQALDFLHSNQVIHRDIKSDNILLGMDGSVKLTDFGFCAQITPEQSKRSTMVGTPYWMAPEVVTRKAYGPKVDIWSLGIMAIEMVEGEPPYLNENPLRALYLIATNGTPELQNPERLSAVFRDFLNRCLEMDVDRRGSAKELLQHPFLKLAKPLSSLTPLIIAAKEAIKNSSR
PAK2, sequence (Q13177 whole entry): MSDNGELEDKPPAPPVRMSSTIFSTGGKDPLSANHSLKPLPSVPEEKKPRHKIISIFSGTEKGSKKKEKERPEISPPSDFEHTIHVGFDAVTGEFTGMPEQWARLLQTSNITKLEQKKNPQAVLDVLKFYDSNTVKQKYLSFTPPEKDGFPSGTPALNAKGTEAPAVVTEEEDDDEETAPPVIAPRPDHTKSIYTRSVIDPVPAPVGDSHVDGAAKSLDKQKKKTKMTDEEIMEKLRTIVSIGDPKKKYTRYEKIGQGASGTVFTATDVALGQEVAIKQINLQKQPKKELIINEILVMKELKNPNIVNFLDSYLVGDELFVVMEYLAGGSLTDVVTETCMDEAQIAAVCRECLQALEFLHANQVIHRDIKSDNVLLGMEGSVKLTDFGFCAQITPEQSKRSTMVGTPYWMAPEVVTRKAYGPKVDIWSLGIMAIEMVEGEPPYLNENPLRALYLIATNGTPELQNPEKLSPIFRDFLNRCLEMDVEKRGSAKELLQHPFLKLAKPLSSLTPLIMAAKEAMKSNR
PAK1, sequence (Q13153 whole entry): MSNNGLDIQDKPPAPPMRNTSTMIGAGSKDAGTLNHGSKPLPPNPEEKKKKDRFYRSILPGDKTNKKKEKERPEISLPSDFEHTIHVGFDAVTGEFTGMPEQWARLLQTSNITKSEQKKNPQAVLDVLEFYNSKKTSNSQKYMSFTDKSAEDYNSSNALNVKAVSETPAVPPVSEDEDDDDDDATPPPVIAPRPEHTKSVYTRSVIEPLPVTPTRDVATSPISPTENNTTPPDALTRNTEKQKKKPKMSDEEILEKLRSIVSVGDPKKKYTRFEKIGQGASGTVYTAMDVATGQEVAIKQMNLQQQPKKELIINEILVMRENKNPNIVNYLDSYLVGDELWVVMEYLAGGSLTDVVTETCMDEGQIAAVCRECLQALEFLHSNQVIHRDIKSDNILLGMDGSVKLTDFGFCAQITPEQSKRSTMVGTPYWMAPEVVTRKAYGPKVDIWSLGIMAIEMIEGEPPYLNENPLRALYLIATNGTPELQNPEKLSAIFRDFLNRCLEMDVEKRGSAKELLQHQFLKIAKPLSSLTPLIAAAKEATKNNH

| Compound | IC50 (PAK3; Table 1 of Example 100) [nM] | IC50 (PAK2; [1]) [nM] | IC50 (PAK1; Table 1 of Example 100) [nM] | IC50 (PAK4; Table 1 of Example 100) [nM] | IC50 (PAK3; [2]) [nM] | IC50 (PAK1; [2]) [nM] | IC50 (PAK4; [2]) [nM] | IC50 (PAK2; [3]) [nM] |
| --- | --- | --- | --- | --- | --- | --- | --- | --- |
| CN1CCN(c2ccc(Nc3ncc4ccc(=O)n(C5CCCC5)c4n3)cc2)CC1 [Compound 1] | 1000 to 10000 | 1000 to 10000 | < 1000 | 1000 to 10000 |  |  |  |  |
| CN1CCN(c2ccc(Nc3ncc4ccc(=O)n(C5CCc6ccccc65)c4n3)cc2)CC1 (stereo not shown) [Compound 6] | 1000 to 10000 | 1000 to 10000 | < 1000 | 1000 to 10000 |  |  |  |  |
| O=c1ccc2cnc(Nc3ccc(NC4CCCNC4)cc3)nc2n1Cc1ccccc1C(F)(F)F (stereo not shown) [Compound 7] | < 1000 | < 1000 | < 1000 | < 1000 |  |  |  |  |
| O=c1ccc2cnc(Nc3ccc(N4CCNCC4)cc3)nc2n1Cc1ccccc1C(F)(F)F [Compound 9] | < 1000 | < 1000 | < 1000 | < 1000 |  |  |  |  |
| O=c1ccc2cnc(Nc3ccc(OC4CCCNC4)cc3)nc2n1Cc1ccccc1C(F)(F)F (stereo not shown) [Compound 14] | < 1000 | < 1000 | < 1000 | < 1000 |  |  |  |  |
| CN(C)CC(c1ccccc1)n1c(=O)ccc2cnc(Nc3ccc(N4CCOCC4)cc3)nc21 (stereo not shown) [Compound 16] | > 10000 | > 10000 | > 10000 | > 10000 |  |  |  |  |
| CN(C)CC(c1ccccc1)n1c(=O)ccc2cnc(Nc3ccc(N4CCN(C)CC4)cc3)nc21 (stereo not shown) [Compound 19] | > 10000 | > 10000 | > 10000 | > 10000 |  |  |  |  |
| O=c1ccc2cnc(Nc3ccc(N4CCNCC4)c(F)c3)nc2n1C1Cc2ccccc2C1 [Compound 21] | 1000 to 10000 | < 1000 | < 1000 | < 1000 |  |  |  |  |
| O=c1ccc2cnc(Nc3ccc(N4CCNCC4)c(F)c3)nc2n1C1CCc2ccccc2C1 (stereo not shown) [Compound 22] | < 1000 | < 1000 | < 1000 | < 1000 |  |  |  |  |
| Cc1ccccc1Cn1c(=O)ccc2cnc(Nc3ccc(N4CCN(C)CC4)cc3)nc21 [Compound 39] |  | < 1000 | < 1000 | 1000 to 10000 |  |  |  |  |
| CN1CCN(c2ccc(Nc3ncc4ccc(=O)n(Cc5ccccc5C#N)c4n3)cc2)CC1 [Compound 40] |  | < 1000 | < 1000 | 1000 to 10000 |  |  |  |  |
| CN1CCN(c2ccc(Nc3ncc4ccc(=O)n(Cc5ccccc5C(F)(F)F)c4n3)cc2)CC1 [Compound 42] | < 1000 | < 1000 | < 1000 | < 1000 |  |  |  |  |
| CN1CCN(c2ccc(Nc3ncc4ccc(=O)n(Cc5ccccc5SC(F)(F)F)c4n3)cc2)CC1 [Compound 43] | < 1000 | < 1000 | < 1000 | < 1000 |  |  |  |  |
| Cc1cc(F)ccc1Cn1c(=O)ccc2cnc(Nc3ccc(N4CCN(C)CC4)cc3)nc21 [Compound 45] | 1000 to 10000 | 1000 to 10000 | 1000 to 10000 | 1000 to 10000 |  |  |  |  |
| Cc1ccc(C)c(Cn2c(=O)ccc3cnc(Nc4ccc(N5CCN(C)CC5)cc4)nc32)c1 [Compound 46] | 1000 to 10000 | 1000 to 10000 | 1000 to 10000 | 1000 to 10000 |  |  |  |  |
| O=c1ccc2cnc(Nc3ccc(N4CCNCC4)c(F)c3)nc2n1Cc1c(Cl)cccc1C1CC1 [Compound 137] |  |  |  |  | < 1000 | < 1000 | 1000 to 10000 |  |
| CSc1cccc(F)c1Cn1c(=O)ccc2cnc(Nc3ccc(N4CCN(C)CC4)cc3)nc21 [Compound 138] |  |  |  |  | < 1000 | < 1000 | < 1000 |  |
| O=c1c(-c2ccccc2)cc2cnc(Nc3ccc(N4CCNCC4)cc3)nc2n1Cc1ccccc1C(F)(F)F [Compound 163] |  |  |  |  | < 1000 | < 1000 | 1000 to 10000 |  |
| CN1CCN(c2ccc(Nc3ncc4ccc(=O)n(Cc5ccccc5)c4n3)cc2)CC1 [compound 80] |  |  |  |  |  | 1000 to 10000 | > 10000 | 1000 to 10000 |
| Cc1cc(Nc2nccc(-c3ccc(NCCN)nc3)n2)ccc1N1CCN(C)CC1 [compound 83] | 1000 to 10000 |  | < 1000 | < 1000 |  |  |  |  |
| O=c1c(-c2ccccc2)cc2cnc(Nc3ccc(N4CCNCC4)cc3)nc2n1Cc1ccccc1C(F)(F)F [compound 94] | < 1000 |  | < 1000 | 1000 to 10000 |  |  |  |  |
| CSc1cccc(F)c1Cn1c(=O)ccc2cnc(Nc3ccc(N4CCN(C)CC4)cc3)nc21 [compound 99] | < 1000 |  | < 1000 | < 1000 |  |  |  |  |

More lines, main results first:

| IC50 (PAK3; Table 1 of Example 100) [nM] | IC50 (PAK2; [1]) [nM] | IC50 (PAK1; Table 1 of Example 100) [nM] | IC50 (PAK4; Table 1 of Example 100) [nM] | IC50 (PAK3; [2]) [nM] | IC50 (PAK1; [2]) [nM] | IC50 (PAK4; [2]) [nM] | Compound | IC50 (PAK2; [3]) [nM] |
| --- | --- | --- | --- | --- | --- | --- | --- | --- |
| 1000 to 10000 | 1000 to 10000 | 1000 to 10000 | 1000 to 10000 |  |  |  | CN1CCN(c2ccc(Nc3ncc4ccc(=O)n(C5CCCc6ccccc65)c4n3)cc2)CC1 (stereo not shown) [Compound 5] |  |
| < 1000 | < 1000 | < 1000 | < 1000 |  |  |  | O=c1ccc2cnc(Nc3ccc(NC4CCNCC4)cc3)nc2n1Cc1ccccc1C(F)(F)F [Compound 8] |  |
| 1000 to 10000 | 1000 to 10000 | 1000 to 10000 | 1000 to 10000 |  |  |  | CN1CCN(c2ccc(Nc3ncc4ccc(=O)n([C@@H]5CCCc6ccccc65)c4n3)cc2)CC1 [Compound 10] |  |
| < 1000 | < 1000 | < 1000 | < 1000 |  |  |  | O=c1ccc2cnc(Nc3ccc(OC4CCNCC4)cc3)nc2n1Cc1ccccc1C(F)(F)F [Compound 12] |  |
| < 1000 | < 1000 | < 1000 | < 1000 |  |  |  | CN(c1ccc(Nc2ncc3ccc(=O)n(Cc4ccccc4C(F)(F)F)c3n2)cc1)C1CCCNC1 (stereo not shown) [Compound 13] |  |
| 1000 to 10000 | 1000 to 10000 | 1000 to 10000 | 1000 to 10000 |  |  |  | CN1CCN(c2ccc(Nc3ncc4ccc(=O)n(C5CCOc6ccccc65)c4n3)cc2)CC1 (stereo not shown) [Compound 15] |  |
| 1000 to 10000 | 1000 to 10000 | < 1000 | < 1000 |  |  |  | CN1CCN(c2ccc(Nc3ncc4ccc(=O)n(C5Cc6ccccc6C5)c4n3)cc2)CC1 [Compound 17] |  |
| < 1000 | < 1000 | < 1000 | < 1000 |  |  |  | CN1CCN(c2ccc(Nc3ncc4ccc(=O)n(C5CCc6ccccc6C5)c4n3)cc2)CC1 (stereo not shown) [Compound 18] |  |
| 1000 to 10000 | < 1000 | < 1000 | 1000 to 10000 |  |  |  | CN1CCN(c2ccc(Nc3ncc4ccc(=O)n(C5CCC(C)(C)c6ccccc65)c4n3)cc2)CC1 (stereo not shown) [Compound 20] |  |
|  | < 1000 | < 1000 | 1000 to 10000 |  |  |  | CN1CCN(c2ccc(Nc3ncc4ccc(=O)n(Cc5ccccc5OC(F)(F)F)c4n3)cc2)CC1 [Compound 41] |  |
| < 1000 | < 1000 | < 1000 | < 1000 |  |  |  | CN1CCN(c2ccc(Nc3ncc4ccc(=O)n(Cc5ccccc5OC(F)F)c4n3)cc2)CC1 [Compound 44] |  |
|  |  |  |  | < 1000 | < 1000 | < 1000 | CN1CCN(c2ccc(Nc3ncc4ccc(=O)n(Cc5c(F)cccc5C(F)(F)F)c4n3)cc2)CC1 [Compound 112] |  |
|  |  |  |  |  | 1000 to 10000 | > 10000 | CN1CCN(c2ccc(Nc3nccc(-c4ccc(O)nc4)n3)cc2)CC1 [Compound 143] | > 10000 |
|  |  |  |  | 1000 to 10000 | < 1000 | < 1000 | Cc1cc(Nc2nccc(-c3ccc(NCCN)nc3)n2)ccc1N1CCN(C)CC1 [Compound 152] |  |
| < 1000 |  | < 1000 | < 1000 |  |  |  | CN1CCN(c2ccc(Nc3ncc4ccc(=O)n(Cc5c(F)cccc5C(F)(F)F)c4n3)cc2)CC1 [compound 58] |  |
|  |  |  |  | < 1000 |  | < 1000 | CN1CCN(c2ccc(Nc3ncc4ccc(=O)n(Cc5ccccc5OC(F)(F)F)c4n3)cc2)CC1 [compound 97] |  |
